Key:
EGFR1 (HER-1) = EGFR1 (HER-1) (Homo sapiens (Human), UniProt P00533); assay: EGFR1 (HER-1) enzyme assay, fluorescence polarization; type: biochemical; settings: 100 μM ATP, poly(Glu, Tyr) substrate
[1] = tested on: Human Umbilical Vein Endothelial Cell (HUVEC); assay: Inhibitory effect on growth of human umbilical vein endothelial cell (HUVEC), MTS; type: cell-based; settings: Homo sapiens, 96 h, 10 ng/ml VEGF, absorbance 490 nm
[2] = tested on: breast cancer cell line, SK-Br3; assay: Inhibitory effect on growth of cancer cell line SK-Br3, SRB; type: cell-based; settings: Homo sapiens, SK-BR-3, 72 h, overexpressed EGFR2 (HER-2)
How it was run: (§1)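 Growth inhibition was measured by sulforhodamine-B staining (absorbance 570 nm) of TCA-fixed cells after 72 h compound exposure at 37 °C, 5% CO2. Test concentrations ran from 10 μM in 10-fold steps to 10^−4, with DMSO below 1%, in 10% FBS DMEM.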

[3] = tested on: skin cancer cell line, A431; assay: Inhibitory effect on growth of cancer cell line A431, SRB; type: cell-based; settings: Homo sapiens, A-431, 72 h, overexpressed EGFR1 (HER-1)
How it was run: as §1

[4] = tested on: colon and rectal cancer cell line, SW-620; assay: Inhibitory effect on growth of cancer cell line SW-620, SRB; type: cell-based; settings: Homo sapiens, 72 h, not having overexpressed EGFR and EGFR2
How it was run: as §1

VEGFR2 (KDR) = VEGFR2 (KDR) (Homo sapiens (Human), UniProt P35968); assay: VEGFR2 (KDR) enzyme assay, fluorescence polarization; type: biochemical; settings: 5 μM ATP, poly(Glu, Tyr) substrate
How it was run: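 Buffer: 20 mM HEPES pH 7.4 with 5 mM MgCl2, 2 mM MnCl2 and 50 μM Na3VO4. Compound (0.0001–10 μM) was premixed 10 min with VEGFR2 (200 ng/10 μl), then poly(Glu,Tyr) substrate (10 ng/ml) and 5 μM ATP were added for 1 h at room temperature. EDTA-quenched samples were read by FP after 30 min with antibody and tracer.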

Chain of VEGFR2 (KDR) (P35968 20-1356): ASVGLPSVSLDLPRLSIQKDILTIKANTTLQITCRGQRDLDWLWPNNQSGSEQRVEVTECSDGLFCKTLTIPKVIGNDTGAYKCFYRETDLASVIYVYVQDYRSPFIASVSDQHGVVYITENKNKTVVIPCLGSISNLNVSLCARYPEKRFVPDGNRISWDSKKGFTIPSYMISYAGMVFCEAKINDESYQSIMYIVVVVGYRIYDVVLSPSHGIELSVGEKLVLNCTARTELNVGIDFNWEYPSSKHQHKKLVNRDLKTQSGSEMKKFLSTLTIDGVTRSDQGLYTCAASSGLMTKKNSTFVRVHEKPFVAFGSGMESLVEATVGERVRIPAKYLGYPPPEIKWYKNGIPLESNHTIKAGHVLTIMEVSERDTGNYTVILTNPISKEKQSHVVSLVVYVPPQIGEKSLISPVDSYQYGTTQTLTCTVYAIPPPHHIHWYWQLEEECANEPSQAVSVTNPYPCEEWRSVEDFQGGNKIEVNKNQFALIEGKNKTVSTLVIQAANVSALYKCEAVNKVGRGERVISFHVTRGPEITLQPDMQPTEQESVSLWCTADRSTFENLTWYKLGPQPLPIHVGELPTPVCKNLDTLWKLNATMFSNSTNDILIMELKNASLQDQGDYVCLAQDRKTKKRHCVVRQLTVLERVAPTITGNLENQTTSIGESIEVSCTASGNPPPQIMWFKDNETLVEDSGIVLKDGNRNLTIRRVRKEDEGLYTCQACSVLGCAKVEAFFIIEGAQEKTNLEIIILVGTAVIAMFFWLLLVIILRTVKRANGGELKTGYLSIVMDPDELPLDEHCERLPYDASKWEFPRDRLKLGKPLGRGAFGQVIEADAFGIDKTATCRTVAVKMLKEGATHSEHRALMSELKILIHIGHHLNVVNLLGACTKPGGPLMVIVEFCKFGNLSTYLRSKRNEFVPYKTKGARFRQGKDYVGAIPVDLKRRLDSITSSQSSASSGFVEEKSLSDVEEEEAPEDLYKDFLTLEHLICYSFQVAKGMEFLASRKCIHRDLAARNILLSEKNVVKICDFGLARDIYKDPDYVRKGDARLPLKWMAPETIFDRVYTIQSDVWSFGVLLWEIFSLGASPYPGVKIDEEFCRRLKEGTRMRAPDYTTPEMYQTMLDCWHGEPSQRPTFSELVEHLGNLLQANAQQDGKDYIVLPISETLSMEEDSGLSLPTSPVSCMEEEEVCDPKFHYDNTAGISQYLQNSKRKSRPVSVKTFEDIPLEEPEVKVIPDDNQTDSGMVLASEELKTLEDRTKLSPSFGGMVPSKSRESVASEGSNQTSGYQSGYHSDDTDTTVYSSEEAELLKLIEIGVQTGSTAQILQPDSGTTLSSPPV
Chain of EGFR1 (HER-1) (P00533 25-1210): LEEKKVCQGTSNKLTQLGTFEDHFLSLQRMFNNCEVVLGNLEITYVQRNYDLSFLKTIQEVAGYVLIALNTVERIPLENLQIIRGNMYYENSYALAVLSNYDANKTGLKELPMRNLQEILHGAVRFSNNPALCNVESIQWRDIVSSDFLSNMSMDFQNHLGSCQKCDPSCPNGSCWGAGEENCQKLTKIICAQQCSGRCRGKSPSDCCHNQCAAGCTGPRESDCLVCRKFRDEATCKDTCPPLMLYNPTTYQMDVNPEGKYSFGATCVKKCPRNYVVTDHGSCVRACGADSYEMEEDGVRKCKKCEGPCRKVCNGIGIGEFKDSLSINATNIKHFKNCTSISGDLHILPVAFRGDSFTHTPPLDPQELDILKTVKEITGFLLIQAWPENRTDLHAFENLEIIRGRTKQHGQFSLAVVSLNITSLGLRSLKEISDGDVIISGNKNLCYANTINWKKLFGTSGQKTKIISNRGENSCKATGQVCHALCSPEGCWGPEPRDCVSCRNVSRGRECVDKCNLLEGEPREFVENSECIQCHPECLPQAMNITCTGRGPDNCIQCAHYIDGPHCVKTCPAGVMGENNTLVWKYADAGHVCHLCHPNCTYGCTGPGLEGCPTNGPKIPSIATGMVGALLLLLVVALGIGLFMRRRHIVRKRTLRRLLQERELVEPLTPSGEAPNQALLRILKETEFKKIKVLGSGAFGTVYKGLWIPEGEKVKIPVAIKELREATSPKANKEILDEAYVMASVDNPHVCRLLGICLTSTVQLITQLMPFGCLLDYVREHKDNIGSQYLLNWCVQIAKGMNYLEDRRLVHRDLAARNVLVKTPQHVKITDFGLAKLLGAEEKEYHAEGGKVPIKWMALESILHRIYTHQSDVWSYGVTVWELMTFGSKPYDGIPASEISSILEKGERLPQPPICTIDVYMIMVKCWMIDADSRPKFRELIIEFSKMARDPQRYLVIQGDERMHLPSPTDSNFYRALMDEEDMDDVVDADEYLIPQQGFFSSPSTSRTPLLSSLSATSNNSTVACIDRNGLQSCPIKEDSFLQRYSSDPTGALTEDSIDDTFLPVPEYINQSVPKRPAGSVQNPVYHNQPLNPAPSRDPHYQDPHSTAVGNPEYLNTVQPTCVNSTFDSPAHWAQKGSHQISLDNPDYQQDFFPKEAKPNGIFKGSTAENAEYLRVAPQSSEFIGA

Row | IC50 (EGFR1 (HER-1)) [nM] | IC50 [2] [nM] | IC50 [3] [nM] | IC50 [4] [nM] | IC50 (VEGFR2 (KDR)) [nM] | SMILES | IC50 [1] [nM]
1 | 19 | 71 | 15 | 9570 | 66 | C=CC(=O)Nc1cc2c(Nc3ccc(Br)cc3F)ncnc2cc1OCCNC(=O)C=CC [Example 50, but-2-enoic acid {2-[6-acryloylamino-4-(4-bromo-2-fluoro-phenylamino)-quinazolin-7-yloxy]-ethyl}-amide] | 101
2 | 4 | 45 | 28 | 10000 | 157 | C=CC(=O)Nc1cc2c(Nc3ccc(Br)cc3F)ncnc2cc1OCCCNC(C)=O [Example 13, N-[7-(3-acetylamino-propoxy)-4-(4-bromo-2-fluoro-phenylamino)-quinazolin-6-yl]-acrylamide] | 79
3 | 213 | 97 | 203 | 2790 | 257 | C=CC(=O)Nc1cc2c(Nc3ccc(Br)c(Cl)c3F)ncnc2cc1OCCNC(=O)COC [Example 146, N-{4-(4-bromo-3-chloro-2-fluoro-phenylamino)-7-[2-(2-methoxy-acetylamino)-ethoxy]-quinazolin-6-yl}-acrylamide] | 365
4 | 32 | 399 | 35 | 3670 | 782 | C=CC(=O)Nc1cc2c(Nc3ccc(Br)cc3F)ncnc2cc1OCCNC(=O)CN1CCOCC1 [Example 103, N-{4-(4-bromo-2-fluoro-phenylamino)-7-[2-(2-morpholin-4-yl-acetylamino)-ethoxy]-quinazolin-6-yl}-acrylamide] | 932
5 | 40 | 288 | 44 | 10000 | 698 | C=CC(=O)Nc1cc2c(Nc3ccc(Br)cc3F)ncnc2cc1OCCCNC(=O)CC [Example 87, N-[4-(4-bromo-2-fluoro-phenylamino)-7-(3-propionylamino-propoxy)-quinazolin-6-yl]-acrylamide] | 692
6 | 47 | 437 | 57 | 729 | 129 | C=CC(=O)Nc1cc2c(Nc3ccc(Br)cc3F)ncnc2cc1OCCNC(=O)c1cccs1 [Example 92, thiophene-2-carboxylic acid {2-[6-acryloylamino-4-(4-bromo-2-fluoro-phenylamino)-quinazolin-7-yloxy]-ethyl}-amide] | 258
7 | 2 | 157 | 17 | 2500 | 347 | C=CC(=O)Nc1cc2c(Nc3ccc(Br)cc3F)ncnc2cc1OCCCNC(=O)CN(C)C [Example 12, N-{4-(4-bromo-2-fluoro-phenylamino)-7-[3-(2-dimethylamino-acetylamino)-propoxy]-quinazolin-6-yl}-acrylamide] | 156
8 | 2 | 38 | 15 | 8100 | 250 | C=CC(=O)Nc1cc2c(Nc3ccc(Br)cc3F)ncnc2cc1OCCNC(=O)NCC [Example 23, N-{4-(4-bromo-2-fluoro-phenylamino)-7-[2-(3-ethyl-ureido)-ethoxy]-quinazolin-6-yl}-acrylamide] | 99
9 | 198 | 128 | 153 | 10000 | 654 | C=CC(=O)Nc1cc2c(Nc3ccc(Br)cc3F)ncnc2cc1OCCNC(=O)CN(C)CC [Example 56, N-(4-(4-bromo-2-fluoro-phenylamino)-7-{2-[2-(ethyl-methyl-amino)-acetylamino]-ethoxy}-quinazolin-6-yl)-acrylamide] | 691
10 | 29 | 60 | 35 | 10000 | 158 | C=CC(=O)Nc1cc2c(Nc3ccc(Br)cc3F)ncnc2cc1OC[C@@H](C)NC(C)=O [Example 82, (R)—N-[7-(2-acetylamino-propoxy)-4-(4-bromo-2-fluoro-phenylamino)-quinazolin-6-yl]-acrylamide] | 205
11 | 9 | 813 | 39 | 10000 | 450 | C=CC(=O)Nc1cc2c(Nc3ccc(Br)cc3F)ncnc2cc1OCCN(C)C [Example 19, N-[4-(4-bromo-2-fluoro-phenylamino)-7-(2-dimethylamino-ethoxy)-quinazolin-6-yl]-acrylamide] | 350
12 | 9 | 57 | 8 | 9540 | 751 | C=CC(=O)Nc1cc2c(Nc3cc(Cl)c(Cl)cc3F)ncnc2cc1OCCNC(=O)CN(C)C [Example 140, N-{4-(4,5-dichloro-2-fluoro-phenylamino)-7-[2-(2-dimethylamino-acetylamino)-ethoxy]-quinazolin-6-yl}-acrylamide] | 756
13 | 49 | 289 | 58 | 2200 | 268 | C=CC(=O)Nc1cc2c(Nc3ccc(Cl)cc3Cl)ncnc2cc1OCCNC(C)=O [Example 113, N-[7-(2-acetylamino-ethoxy)-4-(4-chloro-2-chloro-phenylamino)-quinazolin-6-yl]-acrylamide] | 369
14 | 136 | 939 | 125 | 9570 | 685 | C=CC(=O)Nc1cc2c(Nc3ccc(Br)cc3F)ncnc2cc1OCCNC(=O)CNC [Example 60, N-{4-(4-bromo-2-fluoro-phenylamino)-7-[2-(2-methylamino-acetylamino)-ethoxy]-quinazolin-6-yl}-acrylamide] | 689
15 | 589 | 437 | 426 | 4540 | 471 | C=CC(=O)Nc1cc2c(Nc3ccc(Br)cc3F)ncnc2cc1OCCNCC(C)=O [Example 55, N-{4-(4-bromo-2-fluoro-phenylamino)-7-[2-(2-oxo-propylamino)-ethoxy]-quinazolin-6-yl}-acrylamide] | 359
16 | 924 | 1260 | 1240 | 10000 | 945 | C=CC(=O)Nc1cc2c(Nc3cccc(Cl)c3F)ncnc2cc1OCCNC(=O)CN(C)C [Example 117, N-[4-(3-chloro-2-fluoro-phenylamino)-7-{2-[2-(dimethylamino)-acetamido]-ethoxy}quinazolin-6-yl]-acrylamide] | 998
17 | 25 | 100 | 30 | 6700 | 654 | C=CC(=O)Nc1cc2c(Nc3ccc(Br)cc3F)ncnc2cc1OCCNC(=O)C1CCCN1C(C)=O (stereo not drawn) [Example 105, 1-acetyl-pyrrolidine-2-carboxylic acid {2-[6-acryloylamino-4-(4-bromo-2-fluoro-phenylamino)-quinazolin-7-yloxy]-ethyl}-amide] | 654
18 | 125 | 572 | 147 | 10000 | 478 | C=CC(=O)Nc1cc2c(Nc3ccc(Br)cc3F)ncnc2cc1OCC1=NCCO1 [Example 109, N-[4-(4-bromo-2-fluoro-phenylamino)-7-(4,5-dihydro-oxazol-2-ylmethoxy)-quinazolin-6-yl]-acrylamide] | 486
19 | 128 | 70 | 114 | 10000 | 698 | C=CC(=O)Nc1cc2c(Nc3ccc(Br)cc3F)ncnc2cc1OCCNC(=O)C(C)C [Example 48, N-[4-(4-bromo-2-fluoro-phenylamino)-7-(2-isobutyrylamino-ethoxy)-quinazolin-6-yl]-acrylamide] | 697
20 | 14 | 456 | 59 | 5680 | 50 | C=CC(=O)Nc1cc2c(Nc3ccc(Br)cc3F)ncnc2cc1OCC1CCN(C(=O)NC(C)(C)C)CC1 [Example 11, 4-[6-acryloylamino-4-(4-bromo-2-fluoro-phenylamino)-quinazolin-7-yloxymethyl]-piperidin-1-carboxylic acid t-butylamide] | 41
21 | 16 | 223 | 12 | 4760 | 875 | C=CC(=O)Nc1cc2c(Nc3ccc(Br)cc3F)ncnc2cc1OCCNC(=O)C=CCN(C)C [Example 53, 4-dimethylamino-but-2-enoic acid {2-[6-acryloylamino-4-(4-bromo-2-fluoro-phenylamino)-quinazolin-7-yloxy]-ethyl}-amide] | 964

Row | SMILES | IC50 (EGFR1 (HER-1)) [nM] | IC50 [2] [nM] | IC50 [3] [nM] | IC50 [4] [nM] | IC50 (VEGFR2 (KDR)) [nM] | IC50 [1] [nM]
22 | C=CC(=O)Nc1cc2c(Nc3ccc(Br)cc3F)ncnc2cc1OCC(CC)NC(C)=O (stereo not drawn) [Example 86, N-[7-(2-acetylamino-butoxy)-4-(4-bromo-2-fluoro-phenylamino)-quinazolin-6-yl]-acrylamide] | 69 | 208 | 71 | 722 | 98 | 118

Reference: patent US8846699B2, “Quinazoline derivatives as a multiplex inhibitor and method for the preparation thereof” (Hanmi Pharm. Co., Ltd., priority 2005, dated 2014)
